What follows are compounds tested against T1, human PAH with the R408W mutation (Homo sapiens, UniProt P00439, R408W) (assay: Cell Based Phenylalanine Flux Assay). Settings: A375 cells expressing R408W PAH; 24 hrs with compound, then 20 µM sepiapterin and 800 µM 13C9,15N-Phenylalanine for 4 hours; 13C-Tyrosine by LC-MS; average where tested multiple times; read-out: AC50.
T1 construct: expressed in transfected cells
T1 sequence (P00439 1-452 R408W): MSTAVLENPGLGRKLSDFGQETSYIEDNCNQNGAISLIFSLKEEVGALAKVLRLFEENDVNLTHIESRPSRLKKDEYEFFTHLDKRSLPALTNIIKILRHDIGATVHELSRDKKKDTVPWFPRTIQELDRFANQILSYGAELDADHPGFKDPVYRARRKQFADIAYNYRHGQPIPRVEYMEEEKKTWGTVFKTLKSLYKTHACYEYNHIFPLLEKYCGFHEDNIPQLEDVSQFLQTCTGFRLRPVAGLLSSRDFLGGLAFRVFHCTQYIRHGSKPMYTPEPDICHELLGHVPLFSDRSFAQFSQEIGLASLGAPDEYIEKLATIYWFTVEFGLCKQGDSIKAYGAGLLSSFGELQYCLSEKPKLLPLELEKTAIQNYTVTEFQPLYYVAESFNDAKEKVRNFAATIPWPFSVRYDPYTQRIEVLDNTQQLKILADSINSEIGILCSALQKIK
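Note: after compound treatment, cells received sepiapterin plus isotope-labelled Phenylalanine for 4 hours, then labelled Tyrosine in the medium was quantified, 10-point 2-fold dilution series run in duplicate.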

Row | SMILES | AC50
1 | c1ccn2nc(C3c4nc[nH]c4CCN3c3nnc(-c4ccncn4)o3)cc2c1 (centres unmarked) | 1 to 5 µM
2 | Fc1ncccc1-c1nnc(N2CCc3[nH]cnc3C2c2cc3c(C(F)F)cccn3n2)o1 (centres unmarked) | 1 to 5 µM

Further lines, results first:

Row | AC50 | SMILES
3 | 1 to 5 µM | CC(C)(C)c1nnc(C(=O)N2CCc3[nH]cnc3C2c2cc3ccc(C(F)(F)F)cn3n2)o1 (centres unmarked)
4 | > 5 µM | Cc1ccn2nc(C3c4nc[nH]c4CCN3C(=O)c3nnc(-c4cnn(C)c4)o3)cc2c1 (centres unmarked)

Same assay, conditions: A375 cells expressing human PAH R408W; 24 hrs compound incubation; 13C-Tyrosine by LC-MS; average where tested multiple times; read-out: AC50

Row | AC50 | SMILES
5 | < 0.5 µM | O=C(c1nnc(C2CC2)o1)N1CCc2[nH]cnc2[C@H]1c1cc2c(Br)cccn2n1 [Example 1908, (S)-(4-(4-bromopyrazolo[1,5-a]pyridin-2-yl)-1,4,6,7-tetrahydro-5H-imidazo[4,5-c]pyridin-5-yl)(5-cyclopropyl-1,3,4-oxadiazol-2-yl)methanone]
6 | > 5 µM | O=C(c1nc2ccccc2o1)N1CCc2[nH]cnc2[C@@H]1c1cc2ccccn2n1 [Example 2049, (R)-benzo[d]oxazol-2-yl(4-(pyrazolo[1,5-a]pyridin-2-yl)-1,4,6,7-tetrahydro-5H-imidazo[4,5-c]pyridin-5-yl)methanone]
7 | > 5 µM | Clc1cccn2nc([C@H]3c4nc[nH]c4CCN3c3nnc(-c4ccncn4)o3)cc12 [Example 2183, (R)-2-(4-(4-chloropyrazolo[1,5-a]pyridin-2-yl)-1,4,6,7-tetrahydro-5H-imidazo[4,5-c]pyridin-5-yl)-5-(pyrimidin-4-yl)-1,3,4-oxadiazole]
8 | 0.5 to 1 µM | Cc1cccn2nc([C@@H]3c4nc[nH]c4CCN3c3nnc(C4(C)CC4)o3)cc12 [Example 2189, (S)-2-(1-methylcyclopropyl)-5-(4-(4-methylpyrazolo[1,5-a]pyridin-2-yl)-1,4,6,7-tetrahydro-5H-imidazo[4,5-c]pyridin-5-yl)-1,3,4-oxadiazole]

Same assay, conditions: A375 cells expressing human R408W PAH; 24 hrs compound incubation; 13C-Tyrosine by LC-MS; average where tested multiple times; read-out: AC50

Row | SMILES | AC50
9 | Fc1cccn2nc([C@@H]3c4nc[nH]c4CCN3c3nnc(-c4ccccn4)o3)cc12 [Example 1613, (S)-2-(4-(4-fluoropyrazolo[1,5-a]pyridin-2-yl)-6,7-dihydro-1H-imidazo[4,5-c]pyridin-5(4H)-yl)-5-(pyridin-2-yl)-1,3,4-oxadiazole] | < 0.5 µM
10 | CC1(c2nnc(C(=O)N3CCc4[nH]cnc4[C@@H]3c3cc4c(C(F)(F)F)cccn4n3)o2)CC1 [Example 1324, (R)-(5-(1-methylcyclopropyl)-1,3,4-oxadiazol-2-yl)(4-(4-(trifluoromethyl)pyrazolo[1,5-a]pyridin-2-yl)-6,7-dihydro-1H-imidazo[4,5-c]pyridin-5(4H)-yl)methanone] | 1 to 5 µM
11 | Cc1cccn2nc([C@H]3c4nc[nH]c4CCN3C(=O)c3oc(C(C)(C)O)nc3C(F)F)cc12 [Example 737, (R)-(4-(difluoromethyl)-2-(2-hydroxypropan-2-yl)oxazol-5-yl)(4-(4-methylpyrazolo[1,5-a]pyridin-2-yl)-6,7-dihydro-1H-imidazo[4,5-c]pyridin-5(4H)-yl)methanone] | 1 to 5 µM
12 | Cc1ccc2c(C(=O)N3CCc4[nH]cnc4[C@@H]3c3cc4c(C)cccn4n3)cnn2c1 [Example 1669, (R)-(4-(4-methylpyrazolo[1,5-a]pyridin-2-yl)-6,7-dihydro-1H-imidazo[4,5-c]pyridin-5(4H)-yl)(6-methylpyrazolo[1,5-a]pyridin-3-yl)methanone] | > 5 µM
13 | COc1cccn2nc([C@@H]3c4nc[nH]c4CCN3C(=O)c3cnn4cc(C5CC5)ccc34)cc12 [Example 1788, (S)-(6-cyclopropylpyrazolo[1,5-a]pyridin-3-yl)(4-(4-methoxypyrazolo[1,5-a]pyridin-2-yl)-6,7-dihydro-1H-imidazo[4,5-c]pyridin-5(4H)-yl)methanone] | 0.5 to 1 µM
14 | CC(C)(F)c1nnc(C(=O)N2CCc3[nH]cnc3[C@H]2c2cc3cccc(C(F)(F)F)n3n2)o1 [Example 1161, (S)-(5-(2-fluoropropan-2-yl)-1,3,4-oxadiazol-2-yl)(4-(7-(trifluoromethyl)pyrazolo[1,5-a]pyridin-2-yl)-6,7-dihydro-1H-imidazo[4,5-c]pyridin-5(4H)-yl)methanone] | 0.5 to 1 µM

Now from value to compound:

Row | AC50 | SMILES
15 | > 5 µM | O=C(c1nnc(-c2ccn(C(F)F)n2)o1)N1CCc2[nH]cnc2[C@@H]1c1cc2c(OC(F)F)cccn2n1 [Example 1663, (R)-(4-(4-(difluoromethoxy)pyrazolo[1,5-a]pyridin-2-yl)-6,7-dihydro-1H-imidazo[4,5-c]pyridin-5(4H)-yl)(5-(1-(difluoromethyl)-1H-pyrazol-3-yl)-1,3,4-oxadiazol-2-yl)methanone]
16 | < 0.5 µM | Cc1cccc2cc([C@@H]3c4nc[nH]c4CCN3C(=O)c3nnc(-c4ccccn4)o3)nn12 [Example 798, (S)-(4-(7-methylpyrazolo[1,5-a]pyridin-2-yl)-6,7-dihydro-1H-imidazo[4,5-c]pyridin-5(4H)-yl)(5-(pyridin-2-yl)-1,3,4-oxadiazol-2-yl)methanone]
17 | 0.5 to 1 µM | Cc1ccc2cc([C@H]3c4nc[nH]c4CCN3C(=O)c3cnco3)nn2c1 [Example 1186, (R)-(4-(6-methylpyrazolo[1,5-a]pyridin-2-yl)-6,7-dihydro-1H-imidazolo[4,5-c]pyridin-5(4H)-yl)(oxazol-5-yl)methanone]
18 | > 5 µM | Cc1ccc2cc([C@H]3c4nc[nH]c4CCN3C(=O)c3nnc(-c4ccn(C)n4)o3)nn2c1 [Example 815, (R)-(5-(1-methyl-1H-pyrazol-3-yl)-1,3,4-oxadiazol-2-yl)(4-(6-methylpyrazolo[1,5-a]pyridin-2-yl)-6,7-dihydro-1H-imidazo[4,5-c]pyridin-5(4H)-yl)methanone]
19 | 0.5 to 1 µM | Cc1cccc2cc([C@@H]3c4nc[nH]c4CCN3C(=O)c3nnc(-c4cnn(C(F)F)c4)o3)nn12 [Example 914, (S)-(5-(1-(difluoromethyl)-1H-pyrazol-4-yl)-1,3,4-oxadiazol-2-yl)(4-(7-methylpyrazolo[1,5-a]pyridin-2-yl)-6,7-dihydro-1H-imidazo[4,5-c]pyridin-5(4H)-yl)methanone]
20 | > 5 µM | O=C(c1nnc(-c2cnn(C(F)F)c2)o1)N1CCc2[nH]cnc2[C@@H]1c1cc2cccc(C(F)(F)F)n2n1 [Example 1041, (R)-(5-(1-(difluoromethyl)-1H-pyrazol-4-yl)-1,3,4-oxadiazol-2-yl)(4-(7-(trifluoromethyl)pyrazolo[1,5-a]pyridin-2-yl)-6,7-dihydro-1H-imidazo[4,5-c]pyridin-5(4H)-yl)methanone]
21 | 1 to 5 µM | O=C(c1nnc(-c2cnn(CC(F)(F)F)c2)o1)N1CCc2[nH]cnc2[C@H]1c1cc2ccccn2n1 [Example 646, (S)-(4-(pyrazolo[1,5-a]pyridin-2-yl)-6,7-dihydro-1H-imidazo[4,5-c]pyridin-5(4H)-yl)(5-(1-(2,2,2-trifluoroethyl)-1H-pyrazol-4-yl)-1,3,4-oxadiazol-2-yl)methanone]
22 | > 5 µM | O=C(c1nnc(-c2cnn(C(F)F)c2)o1)N1CCc2[nH]cnc2[C@@H]1c1cc2c(C(F)(F)F)cccn2n1 [Example 907, (R)-(5-(1-(difluoromethyl)-1H-pyrazol-4-yl)-1,3,4-oxadiazol-2-yl)(4-(4-(trifluoromethyl)pyrazolo[1,5-a]pyridin-2-yl)-6,7-dihydro-1H-imidazo[4,5-c]pyridin-5(4H)-yl)methanone]
23 | > 5 µM | Cc1c(-c2nnc(C(=O)N3CCc4[nH]cnc4[C@@H]3c3cc4c(Cl)cccn4n3)o2)cnn1C [Example 1215, (R)-(4-(4-chloropyrazolo[1,5-a]pyridin-2-yl)-6,7-dihydro-1H-imidazo[4,5-c]pyridin-5(4H)-yl)(5-(1,5-dimethyl-1H-pyrazol-4-yl)-1,3,4-oxadiazol-2-yl)methanone]
